Patent US20210371817A1, “COMPOSITIONS AND METHODS FOR PRECISE PATTERNING OF POSTERIOR NEUROECTODERM FROM HUMAN PLURIPOTENT STEM CELLS” (WISCONSIN ALUMNI RESEARCH FOUNDATION, priority 2013, published 2021)
Entries after “also recorded” stand apart in the source; their conditions may differ.

Assays:
neuromesodermal cultures = assay: Effect of signaling pathway inhibitors on neuromesodermal identity (Sox2 and T by flow cytometry); details: for Sox2+ cells: LY-294002 10 μM, U0126 10 μM, GF109203X 3 μM, or all three at 1 μM, after 2 days
From the text: (FIG. 13A) Timeline of neuromesodermal differentiation and inhibitor addition. (FIG. 13B) Neuromesodermal identity assessed by Sox2 and Brachyury (T) expression after two days. Grey histograms, IgG control. Red histograms, label of interest. LY, LY-294002; U0126, U0126; Gf, GF109203X.
In an attempt to identify which downstream signaling pathways are responsible for FGF's effects, we performed our protocol with various combinations of a PI3K inhibitor (LY-294002), an MEK inhibitor (U0126), and a PKC inhibitor (GF109203X), and measured Sox2 and T levels using flow cytometry.

[1] = system: neuromesodermal progenitors; assay: Accelerated neuronal differentiation of neuromesodermal progenitors; type: cell-based, human; details: DAPT 1 μM; within 7 days
Method: For assessment of columnar identity by FoxP1 expression, cells were bulk passaged by scraping and re-seeded in VTN-NC-coated chamber slides at a 1:200 ratio in E6 medium containing 1 μM RA and 100 nM purmorphamine (PM; Cayman Chemicals). RA/PM treatment was carried out for 7 days, followed by an additional 7 day treatment with 10 ng/ml brain-derived neurotrophic factor (BDNF; Peprotech), 10 ng/ml glial-derived neurotrophic factor (GDNF; Peprotech), and cAMP (1 μM; Sigma). For accelerated neuronal differentiation, neuromesodermal progenitors were treated with 1 μM RA, 2 μM PM, and 1 μg/ml recombinant sonic hedgehog (SHH) for 2 days, then passaged with ACCUTASE® and re-seeded in VTN-NC coated chamber slides at 1×10^4 cells/cm^2 in E6 medium containing 1 μM RA, 1 μM DAPT (Cayman Chemicals), 10 ng/ml BDNF, 10 ng/ml GDNF, and 1 μM cAMP for 7 days.
Immunocytochemistry. Immunocytochemistry was conducted as previously described. Primary antibodies against Sox2 (1:500), brachyury (1:500), Pax6 (rabbit; 1:500; Covance), N-cadherin (mouse; 1:500; BD Biosciences), Otx2 (goat; 1:500; R&D Systems), HoxB4 (rat; 1:50; DSHB), HoxD10 (goat; 1:500; R&D Systems), NeuN (mouse; 1:100; Millipore), Hb9 (mouse; 1:50; DSHB), ISL1 (mouse; 1:100; DSHB), and FoxP1 (rabbit; 1:20,000; Abcam) were utilized. Samples were visualized on a Nikon Ti-E epifluorescence microscope or a Nikon AIR confocal microscope. […]

H9 hESCs = assay: HOX, OTX2 and T gene expression by RT-PCR/qPCR during hESC differentiation with morphogens; type: cell-based, human
Method: hPSC differentiation. hPSCs were washed once with phosphate-buffered saline (PBS; Invitrogen), dissociated with ACCUTASE® (Invitrogen) for 3 min, and collected by centrifugation. hPSCs were then seeded onto VTN-NC-coated plates in E8 medium containing 10 μM ROCK inhibitor (Y27632; R&D Systems). Seeding density was 2×10^5 cells/cm^2. The following day, the cells were switched to E6 medium (same composition as E8 medium minus FGF2 and TGFβ 1). Morphogen treatments were then carried out according to the figures in the text. Cells were supplemented with FGF8b (100-200 ng/ml; Peprotech), CHIR99021 (3-6 μM; Tocris), and/or RA (3 μM; Sigma).
Reverse transcriptase polymerase chain reaction (RT-PCR). Total RNA was extracted from cells using TRIZOL® reagent (Invitrogen) according to the manufacturer's instructions. RNA was then subjected to reverse-transcription using a Thermoscript™ RT-PCR kit (Invitrogen) in a 20 μL mixture according to the manufacturer's instructions. The resulting cDNA was then amplified in a 25 μL mixture containing 10×PCR buffer, 0.2 mM dNTP, 1.5 mM MgCl2, 0.5 μM of each primer, and 1 U Taq DNA polymerase (Invitrogen). Amplified products were resolved on 2% agarose gels containing SYBR Safe (Invitrogen) and visualized with a VersaDoc (BioRad). Primer sequences can be found in Table 3. All amplifications were carried out for 35 cycles. HOXC5 and HOXC6 were amplified at 58° C., all others with an annealing temperature of 55° C.
Propagation and differentiation of neuromesodermal progenitors. H9 hESCs (passage 25-45), H9 ishcat2 hESCs (passage 33-43), and IMR90-4 iPSCs (passage 31-40) were maintained in E8 medium on MATRIGEL© (BD Biosciences) as previously described. To initiate differentiation, hPSCs were passaged with ACCUTASE© (Life Technologies) onto vitronectin (VTN-NC)-coated plates at a density of 1×10^5 cells/cm^2 as previously described. The following day, cells were changed to E6 medium. 24 h later, cells were changed to E6 medium containing 200 ng/ml FGF8b (Peprotech). 24 h later, cells were washed once with 2 ml PBS, treated with ACCUTASE® for 2 min, and removed from the surface by gentle pipetting. After collection by centrifugation, cells were gently resuspended in E6 medium containing 200 ng/ml FGF8b and CHIR99021 (CHIR, concentration varied depending on cell line; Tocris) and re-seeded on VTN-NC-coated plates at a density of 1.5×10^5 cells/cm^2. Medium was not changed until 48 h after passaging. This passaging process was repeated on day 3 of CHIR 99021 treatment (re-seed density of 1.2×10^5 cells/cm^2) if extended neuromesodermal propagation was required, and 50 ng/ml GDF11 (Peprotech) was added on day 4 of CHIR 99021 treatment to initiate lumbar patterning. Cells were changed to E6 medium containing 1 μM retinoic acid (RA; Sigma) to facilitate neural transition.
qPCR. Total RNA was extracted from cultured cells using TRIZOL® (Life Technologies) according to the manufacturer's instructions. After isolation, 2-5 μg of total RNA was immediately subjected to reverse transcription using the Thermoscript™ RT-PCR kit (Life Technologies) in a 20 μL reaction according to the manufacturer's instructions. […] For all experiments, ΔΔCt values for each gene were calculated relative to ribosomal protein S18 (RPS18) RNA levels and converted to fold difference assuming 100% primer efficiency, then normalized to maximum expression levels as indicated in each figure legend. […]

[2] = system: neuromesodermal progenitors; assay: Neuroectoderm or mesoderm fate transition of neuromesodermal progenitors by flow cytometry; type: cell-based, human
Method: Assessment of neuroectoderm or mesoderm fate transition by flow cytometry. Grey histogram, IgG control; red histogram, antigen of interest. Data are presented as mean±standard deviation calculated from two biological replicates. (FIG. 8B) For experiments in panels FIGS. 8C-8F, neuromesodermal propagation was halted by removing FGF8b/CHIR 99021/GDF11 and adding RA. Assays were conducted after 4 days of RA treatment. (FIG. 8C) HOX profiles generated after RA treatment. Each gene is normalized to its maximum expression. Error bars are standard deviation calculated from duplicate reactions. (FIG. 8D) HoxB4 and HoxD10 expression in neuroepithelial cultures after RA treatment. Scale bars, 100 m. (FIG. 8E) Purity of Sox2, Pax6, HoxB4, and HoxD10 after 4 days of RA treatment. Sox2, Pax6, and HoxB4 were quantified using flow cytometry and HoxD10 was quantified by manual counting of dissociated cells ([…]). Error bars are standard deviation calculated from at least two biological replicates. […] (FIG. 8F) Motor neuron differentiation at cervical, thoracic, and lumbar spinal cord depths, where the motor neuron precursors show region-specific patterns of FoxP1, Isl1, and Hb9 co-expression. (FIG. 8G) Neuronal maturation from cervical, thoracic, and lumbar patterned NSCs, as assessed by immunocytochemistry (top panel; DAPI (blue) is overlaid in all images; Scale bars, 20 m) and RT-PCR (50 cycles; bottom panel).
Flow cytometry. Flow cytometry was conducted as described in the Examples above. Primary antibodies against Sox2 (mouse; 1:1000; Millipore), brachyury (goat; 1:200; R&D Systems), Pax6 (mouse; 1:200; DSHB), and HoxB4 (rat; 1:50; DSHB) were utilized. Samples were run on a FACSCaliber (BD Biosciences) and data were analyzed using Cyflogic software. Positive events were quantified by gating above the top 1% of species-matched IgG controls.
We next evaluated the transition of neuromesodermal progenitors to definitive neural progenitors. RA secreted from somites in response to declining FGF signaling elicits dorsal/ventral patterning and expression of the neuroectoderm marker Pax6 in vivo^16, 26, which led us to suspect RA serves as both the neuroectoderm fate switch and HOX ‘stop signal’. We first investigated the ability of RA to initiate neuroectoderm specification from neuromesodermal progenitors. […] At any point in neuromesodermal differentiation, the addition of RA generated highly pure (>83%) Pax6^+ neuroectoderm (FIGS. 8B-8E and FIGS. 9A-9C).

IMR90-4 iPSCs = assay: Neuromesodermal differentiation from IMR90-4 iPSCs; type: cell-based, human
Method: FIGS. 11A-11C show neuromesodermal differentiation from IMR90-4 iPSCs. (FIG. 11A) Timeline of neuromesodermal differentiation. (FIG. 11B) Neuromesodermal identity assessed during differentiation in 2 or 3 μM CHIR 99021. Grey histograms, IgG control. Red histograms, label of interest. Data are presented as mean±standard deviation calculated from two biological replicates. […] (FIG. 11C) Colinear HOX activation observed by qPCR during neuromesodermal differentiation. Each gene is normalized to its maximum expression. Error bars are standard deviation calculated from duplicate reactions.
Differentiation was conducted according to the protocol of FIG. 11A. Neuromesodermal identity was assessed during differentiation in both 2 and 3 μM CHIR (FIG. 11B). Grey histograms are IgG control, and red histograms are the label of interest. […] During neuromesodermal propagation, progressive HOX activation was verified by qPCR (FIG. 11C).

neuromesodermal cells = assay: Pax6 and HoxD10 expression after GDF11 with or without dorsomorphin, then RA; type: cell-based, human; details: dorsomorphin with GDF11 and throughout RA treatment
From the text: (FIG. 7A) Timeline of differentiation. (FIG. 7B) qPCR assessment of lumbar/sacral gene expression at day 12. A minimum concentration of GDF11 is required to activate HoxD10 and HoxA11. Each gene is normalized to the maximum GDF11 dose. Error bars are standard deviation calculated from duplicate reactions. (FIG. 7C) Expression of Pax6 in response to increased GDF11 concentrations. Data were collected by flow cytometry and represented as mean±standard deviation calculated from two biological replicates. Sox2 was uniformly expressed regardless of GDF11 treatment (data not shown). […] Grey histograms, IgG control; Red histograms, Pax6. Data are representative of two biological replicates. […] Percentages were quantified as HoxD10 labeling relative to DAPI-stained nuclei (>2500 total cells counted per sample). Scale bars, 100 μm
After neural tube closure in vivo, opposing gradients of TGFβ and SHH signaling produce distinct dorsal and ventral domains from which sensory neurons, interneurons, and motor neurons arise. Pax6, which has been identified as a neuroectoderm fate determinant, is expressed throughout most of the neural tube but is absent from the most dorsal and ventral domains. […] The ability of GDF11 to control rostral/caudal patterning is mediated by signaling via ALK5 and activation of the SMAD2/3 complex. […]

[3] = neuromesodermal progenitors exposed to E6 medium with the substance

Compound: O=c1cc(N2CCOCC2)oc2c(-c3ccccc3)cccc12 [LY-294002]
- Sox2+ cells (neuromesodermal cultures): 99%

Compound: C[C@H](NC(=O)Cc1cc(F)cc(F)c1)C(=O)N[C@H](C(=O)OC(C)(C)C)c1ccccc1 [DAPT]
- NeuN+ neuronal lineage cells [1]: > 95%

Compound: Cc1c[nH]c(-c2cnc(NCCNc3ccc(C#N)cn3)nc2-c2ccc(Cl)cc2Cl)n1 [CHIR 99021]
- HOX gene activation (RT-PCR) (H9 hESCs; morphogen added to E6 medium, up to 4 days): could induce Hox gene expression; also recorded: induced progressive HOX activation from HOXA1 down to HOXC5
- OTX2 expression reduction compared to RA (H9 hESCs; qPCR day 5, CHIR 99021 3 μM, RA 1 μM): > 100 fold
- Effect on ability of RA to induce Pax6 expression ([2]; added with RA): repressed its ability to induce Pax6 expression
- Brachyury+ cells [2, 3]: 96±1%
- Sox2+ cells [2, 3]: 50±8%
- Neuromesodermal identity (IMR90-4 iPSCs; 2 μM CHIR): maintained the neuromesodermal state
- Neuromesodermal identity (IMR90-4 iPSCs; 3 μM CHIR): resulted in a mesodermal shift

Compound: N#CC(=C(/N)Sc1ccccc1N)/C(C#N)=C(\N)Sc1ccccc1N [U0126]
- Sox2+ cells (neuromesodermal cultures): 99%

Compound: CN(C)CCCn1cc(C2=C(c3c[nH]c4ccccc34)C(=O)NC2=O)c2ccccc21 [GF109203X]
- maximum dose that did not kill all cells (neuromesodermal cultures): 3 µM
- Sox2+ cells (neuromesodermal cultures): 99%

Compound: c1cc(-c2cnn3cc(-c4ccc(OCCN5CCCCC5)cc4)cnc23)ccn1 [dorsomorphin]
- Pax6+ cells (neuromesodermal cells): 83±4%
